Values joined by “and” are separate entries in the source; they are usually repeats but may differ in a detail not shown here. Equal entries are not always repeated. Where a SMILES comes first, the peptide text is derived from it. Where no end group is shown, it is not given here. The star is where a group is joined. Ela = elaidoyl, CCCCCCCC/C=C/CCCCCCCC(=O)*; Palmitoyl = CCCCCCCCCCCCCCCC(=O)*
Tests used:
Assay type in all cases: cell-based
[1] = tested on: Normal Human Dermal Fibroblasts (NHDF); experiment: Survival estimated on cell layer using a fluorescent probe; conditions: 3 days of incubation
Method: (§1) Principle of the study: Normal Human Dermal Fibroblasts (NHDF) were cultivated in an appropriate culture medium (i.e. complete DMEM with fetal calf serum). After cell anchorage, cell layers were rinsed with saline buffer and contact with molecules to be tested were performed in a complete DMEM without fetal calf serum. This medium contained ascorbate (sodium salt) and beta-aminopropionitrile, monofumarate. After 3 days of incubation, supernatants were collected and frozen. Survival was estimated on cell layer using a fluorescent probe. Collagen I was estimated using an original direct ELISA method, Fibronectin and Collagen IV were estimated using ELISA commercial kits.

[2] = tested on: Collagen I synthesis, Normal Human Dermal Fibroblasts (NHDF); experiment: Collagen I synthesis by NHDF, direct ELISA on supernatants after 3 days; conditions: for Variation of Collagen I synthesis (mean, in % of negative control): NHDF, 3 days; for Collagen I synthesis, result in words: vs negative control
Method: (§2) Products: Pal-KTFK (SEQ ID NO: 7), Ela-KTAK (SEQ ID NO: 9) and Ela-KTFK (SEQ ID No: 8) were tested from 2 to 6 ppm, and Pal-KAvaK was tested from 1 to 4 ppm. Solvent=DMSO 0.08%. TGF-beta1 10^−6%, was the positive control for collagen I and fibronectin studies.
as §1
(§3) Results: Statistical analysis were performed on Collagen I data (n=5/assay) or fibronectin data (n=5/assay) or Collagen IV data (n=5/assay). Results obtained with molecules were compared to negative control. All data are in ng/10E6 cells. A Student t test for non paired values was used; significativity was obtained if p<0.05 or p<0.01.

[3] = tested on: Fibronectin synthesis, Normal Human Dermal Fibroblasts (NHDF); experiment: Fibronectin synthesis by NHDF, commercial ELISA kit on supernatants after 3 days; conditions: for Variation of Fibronectin synthesis (mean, in % of negative control): NHDF, 3 days; for Fibronectin synthesis, result in words: vs negative control
Method: as §2, §1, §3

[4] = tested on: Collagen IV synthesis, Normal Human Dermal Fibroblasts (NHDF); experiment: Collagen IV synthesis by NHDF, commercial ELISA kit on supernatants after 3 days; conditions: for Variation of Collagen IV synthesis (mean, in % of negative control): NHDF, 3 days
Method: as §2, §1, §3

[5] = positive control, TGF-beta1 10^−6% (10 ppb)

Compound	Variation of Collagen I synthesis (mean, in % of negative control) ([2]; 2 ppm) [%]	Variation of Collagen I synthesis (mean, in % of negative control) ([2]; 4 ppm) [%]	Variation of Collagen I synthesis (mean, in % of negative control) ([2]; 6 ppm) [%]	Collagen I synthesis, result in words ([2]; 6 ppm)	Variation of Fibronectin synthesis (mean, in % of negative control) ([3]; 2 ppm) [%]	Variation of Fibronectin synthesis (mean, in % of negative control) ([3]; 4 ppm) [%]	Fibronectin synthesis, result in words ([3]; 4 ppm)	Variation of Fibronectin synthesis (mean, in % of negative control) ([3]; 6 ppm) [%]	Variation of Collagen IV synthesis (mean, in % of negative control) ([4]; 2 ppm) [%]	Variation of Collagen IV synthesis (mean, in % of negative control) ([4]; 4 ppm) [%]	other results
CCCCCCCCCCCCCCCC(=O)N[C@@H](CCCCN)C(=O)N[C@H](C(=O)N[C@@H](Cc1ccccc1)C(=O)N[C@@H](CCCCN)C(=O)O)[C@@H](C)O [Pal-KTFK, Pal-Lys-Thr-Phe-Lys] (Palmitoyl-KTFK-OH)											maximal concentration accepted by the cells [1]: ~6 ppm
Ela-Lys-Thr-Ala-Lys (Ela-KTAK) [N-elaidoyl tetrapeptide Lys-Thr-Ala-Lys]	6	18	45	increase	16	32	increase	31			
Ela-Lys-Thr-Phe-Lys (Ela-KTFK) [N-elaidoyl tetrapeptide Lys-Thr-Phe-Lys]	6	19	49	significant increase	10	25		42	10	7	Fibronectin synthesis, result in words ([3]; 6 ppm): significant increase; Variation of Collagen IV synthesis (mean, in % of negative control) ([4]; 6 ppm): 7%
Pal-Lys-Ava-Lys [Pal-KAvaK]	14	49			15	54	increase		9	23	Variation of Collagen I synthesis (mean, in % of negative control) ([2]; 1 ppm): 1%; Collagen I synthesis, result in words ([2]; 4 ppm): increase; Variation of Fibronectin synthesis (mean, in % of negative control) ([3]; 1 ppm): 14%; Variation of Collagen IV synthesis (mean, in % of negative control) ([4]; 1 ppm): 8%; Collagen IV synthesis, result in words ([4]; 4 ppm, vs negative control): increase
TGF-beta: TGF-beta1 10^−6%, the positive control for collagen I and fibronectin studies [reference compound]											Collagen I synthesis, result in words [2, 5]: significant increase; Variation of Fibronectin synthesis (mean, in % of negative control) ([3]; 10 ppb): 124% and 85% and 87%; Fibronectin synthesis, result in words [3, 5]: significant increase; Variation of Collagen IV synthesis (mean, in % of negative control) ([4]; 10 ppb): 12%
